In US9206124B2, “Treatment of drug-resistant cancer with 2-aryl-2-(3-indolyl) acetohydroxamates” (New Mexico Technical Research Foundation, priority 2013, dated 2015):

Assays:
[1] = tested on: GBM 031810 neurosphere cells; assay: Antiproliferative effect on patient-derived GBM neurosphere culture; assay type: cell-based; settings: Homo sapiens, average IC50 ± SD from three determinations, read-out: GI50 in vitro, GBM 031810 (average IC50)
Description: Given the ability of the hydroxamates to overcome drug resistance a few select compounds were further evaluated against glioma cells grown in neurosphere conditions, which are known to promote the growth of stem-like cells from human glioma tissue. Indeed, the neurospheres show the ability of self-renewal by regrowing in culture from individual cells, and can differentiate into multiple neural lineages and recapitulate human gliomas on both histological and genetic levels more faithfully than serum cultured glioma cell lines when injected into the brains of mice. Because, neurosphere cells are generally resistant to radiation and chemotherapy, the micromolar to submicromolar activity of the hydroxamates against the glioma neurosphere cell cultures is noteworthy (Table 4). […] It is worthy of note, that the unmethylated MGMT promoter leading to such temozolomide resistance is found in about half of all GBM patients, who respond poorly to temozolomide chemotherapy. To date, no alternative treatment exists for this group of patients.
Human cancer cell lines were obtained from the American Type Culture Collection (ATCC, Manassas, Va., USA), the European Collection of Cell Culture (ECACC, Salisbury, UK) and the Deutsche Sammlung von Mikroorganismen and Zellkulturen (DSMZ, Braunschweig, Germany). Human cervical adenocarcinoma HeLa cells were cultured in DMEM supplemented with 10% fetal bovine serum (FBS). Human mammary carcinoma MCF-7 cells were cultured in RPMI supplemented with 10% FBS. The U87 cells (ATCC HTB-14) were cultured in DMEM culture medium, while the A549 cells (DSMZ ACC107) were cultured in RPMI culture medium supplemented with 10% heat-inactivated FBS. The glioblastoma multiforme Hs683 (ATCC HTB-138) and the T98G (ATCC CRL-1690) cell lines were cultivated in DMEM supplemented with 10% FBS. The Human uterine sarcoma MES-SA and MES-SA/Dx5 cells were cultured in RPMI-1640 medium supplemented with 10% FBS with MES SA/Dx5 maintained in the presence of 500 nM Doxorubicin (Sigma). SKMEL-28 cells (ATCC HTB72) and U373 glioblastoma cells (ECACC 08061901) were cultured in RPMI culture medium supplemented with 10% heat-inactivated FBS. Cell culture media were supplemented with 4 mM glutamine (Lonza code BE17-605E), 100 μg/mL gentamicin (Lonza code 17-5182), and penicillin-streptomycin (200 units/ml and 200 μg/ml) (Lonza code 17-602E). Neurosphere culture GBM 031810 was established using known methods and maintained in Neurobasal medium (Invitrogen Carlsbad, Calif.) with B27 supplement (20 ul/ml; Invitrogen), Glutamax (10 ul/ml; Invitrogen), fibroblast growth factor-2 (20 ng/ml; Peprotech, Rocky Hill, N.J., USA), epidermal growth factor (20 ng/ml; Peprotech), heparin (32 IE/ml; Sigma Aldrich, St. Louis, Mo.), and penicillin-streptomycin (1×, Invitrogen). […]

U373 glioblastoma cells = assay: Quantitative videomicroscopy, U373; assay type: cell-based, human; settings: 25 μM
Protocol: To obtain insight into the effectiveness of 2-aryl-2-(3-indolyl)acetohydroxamates against apoptosis-resistant cancers, computer-assisted phase-contrast microscopy (quantitative videomicroscopy) was employed to observe the phenotypic morphological changes in cancer cells as they are treated with these compounds. […] Based on the phase contrast pictures obtained by means of quantitative videomicroscopy, a global growth ratio (GGR) was calculated, which corresponds to the ratio of the mean number of cells present in a given image captured in the experiment (in this case after 24, 48 and 72 h) to the number of cells present in the first image (at 0 h). The ratio obtained in the 3aafa-treated experiment was then divided by the ratio obtained in the control. […] Thus, the GGR calculations are consistent with the MTT colorimetric data and indicate that it is the cytostatic properties associated with the hydroxamates that are responsible for their antiproliferative effects against apoptosis-resistant cancer cells, at least at relevant concentrations (slightly above the GI50 values).
Human cancer cell lines were obtained from the American Type Culture Collection (ATCC, Manassas, Va., USA), the European Collection of Cell Culture (ECACC, Salisbury, UK) and the Deutsche Sammlung von Mikroorganismen and Zellkulturen (DSMZ, Braunschweig, Germany). […]

[2] = tested on: HeLa cervical adenocarcinoma cells; assay: MTT antiproliferative assay, HeLa; assay type: cell-based; settings: Homo sapiens, Table 1, 48 h treatment, ± SD, read-out: cell viability GI50, HeLa
Description: (§1) This finding led to an exploration of the SAR analyses by synthesizing the first generation compounds 3 containing diverse substituents at different positions in the 2-aryl-2-(3-indolyl)acetohydroxamate skeleton and testing this series for in vitro growth inhibition using the MTT colorimetric assay against two cell lines, human HeLa cervical and MCF-7 breast adenocarcinomas (Table 1). It emerged from these experiments that the substitution on the benzene ring of the indole moiety (R^2≠H) was not tolerated (e.g., 3abfa and 3acfa), whereas the nitrogen could be derivatized (R^1≠H) with only a small activity drop (e.g., 3bafa vs 3aafa).
(§2) Human cancer cell lines were obtained from the American Type Culture Collection (ATCC, Manassas, Va., USA), the European Collection of Cell Culture (ECACC, Salisbury, UK) and the Deutsche Sammlung von Mikroorganismen and Zellkulturen (DSMZ, Braunschweig, Germany). Human cervical adenocarcinoma HeLa cells were cultured in DMEM supplemented with 10% fetal bovine serum (FBS). Human mammary carcinoma MCF-7 cells were cultured in RPMI supplemented with 10% FBS. The U87 cells (ATCC HTB-14) were cultured in DMEM culture medium, while the A549 cells (DSMZ ACC107) were cultured in RPMI culture medium supplemented with 10% heat-inactivated FBS. The glioblastoma multiforme Hs683 (ATCC HTB-138) and the T98G (ATCC CRL-1690) cell lines were cultivated in DMEM supplemented with 10% FBS. The Human uterine sarcoma MES-SA and MES-SA/Dx5 cells were cultured in RPMI-1640 medium supplemented with 10% FBS with MES SA/Dx5 maintained in the presence of 500 nM Doxorubicin (Sigma). SKMEL-28 cells (ATCC HTB72) and U373 glioblastoma cells (ECACC 08061901) were cultured in RPMI culture medium supplemented with 10% heat-inactivated FBS. Cell culture media were supplemented with 4 mM glutamine (Lonza code BE17-605E), 100 μg/mL gentamicin (Lonza code 17-5182), and penicillin-streptomycin (200 units/ml and 200 μg/ml) (Lonza code 17-602E). Neurosphere culture GBM 031810 was established using known methods and maintained in Neurobasal medium (Invitrogen Carlsbad, Calif.) with B27 supplement (20 ul/ml; Invitrogen), Glutamax (10 ul/ml; Invitrogen), fibroblast growth factor-2 (20 ng/ml; Peprotech, Rocky Hill, N.J., USA), epidermal growth factor (20 ng/ml; Peprotech), heparin (32 IE/ml; Sigma Aldrich, St. Louis, Mo.), and penicillin-streptomycin (1×, Invitrogen). Growth factors and heparin were renewed twice weekly. All cell lines were cultured in T25 flasks, maintained and grown at 37° C., 95% humidity, 5% CO2.
(§3) Antiproliferative properties of the synthesized compounds were evaluated by the MTT assay. All compounds were dissolved in DMSO at a concentration of either 100 mM or 50 mM prior to cell treatment. The cells were trypsinized and seeded at 4×10^3 cells per well into 96-well plates. The cells were grown for 24 h, treated with compounds at concentrations ranging from 0.001 to 100 μM and incubated for 48 h in 200 μL media. 20 μL of MTT reagent in serum free medium (5 mg/mL) was added to each well and incubated further for 2 h. Media was removed and the resulting formazan crystals were re-solubilized in 200 μL of DMSO. A490 was measured using a Molecular Devices Thermomax plate reader. The experiments were performed in quadruplicate and repeated at least twice for each compound per cell line. Cells treated with 0.1% DMSO were used as a negative control; 1 μM phenyl arsine oxide (PAO) was used as a positive control.

[3] = tested on: MES-SA uterine sarcoma cells; assay: MTT antiproliferative assay, MES-SA; assay type: cell-based; settings: Homo sapiens, 48 h treatment, ± SD, read-out: GI50 in vitro, MES-SA
Protocol: Compared with the intrinsic drug resistance, as described above for such cancers as glioblastoma and melanoma, a large variety of tumors can also develop resistance to anticancer drugs resulting in MDR as explained previously. To assess whether the hydroxamates can overcome this resistance mechanism, selected hydroxamates were tested against MDR cells (Table 4). The MDR uterine sarcoma cell line MES-SA/Dx5 was utilized for this experiment. This cell line was established from the parent uterine sarcoma MES-SA, grown in the presence of increasing concentrations of doxorubicin and known to be resistant to a number of P-gp substrates. […] In contrast, there was only a small variation in the sensitivities of the two cell lines towards the hydroxamates indicating their potential to overcome clinical multi-drug resistance.
as §2, §3

[4] = tested on: HeLa cervical and MCF-7 breast adenocarcinomas; assay: In vitro growth inhibition (MTT); assay type: cell-based, human; settings: HeLa and MCF-7
Description: as §1, §3

GI50 [2]: 3600 ± 500 nM
GI50 [3]: 2000 ± 200 nM
antiproliferative potency (GI50) [4]: single-digit micromolar
SMILES: O=C(NO)C(c1ccccc1)c1c(-c2ccc3ccccc3c2)[nH]c2ccccc12 (stereo not drawn) [Compound 3aafa]
IC50 [1]: 800 ± 600 nM
phenotypic effect, U373 (U373 glioblastoma cells; slightly exceeding GI50, FIG. 4): inhibits cancer cell proliferation without inducing cell death
global growth ratio (GGR), U373 (U373 glioblastoma cells; 72 h observation, treated/control): ca. 0.3
